We go through eight compounds from publication PMC4265309 (Chemical biology & drug design, 2014).

Data set [1] in a line: Peptide circular dichroism. As to conditions: secondary structure by CD, 25 °C. Type of data set: physicochemical.
Data set [2] can be described thus: pH sensitivity of lytic activity. As to conditions: ratio calculated from the average IC50 values of a peptide at pH=7.4 and pH=5.5. Type of data set: biochemical.
In data set [3] the test system is A549 and CCD-13Lu cells.
Data set [4] relates to CHO-K1 cells. Briefly: Peptide induced cell lysis. Type of data set: cell-based. As to conditions: CHO-K1, normal cell culture conditions, no peptide (Figures 2 and 4).
Data set [5] relates to CHO-K1 cells. Briefly: Measurement of cell surface pH, CHO-K1. Type of data set: cell-based. As to conditions: from pH=8.4 to pH=6.90, medium pH=7.4.
A short description of data set [6]: Peptide self-assembly and aggregation in solution. The data set is classed as physicochemical.

Some results are limits rather than exact numbers.

As to WLGALFHALSKLL [CL-9], in data set [1], the “Structure pH=6.5” value was “Coil” and the “Structure pH=7.4” value was “α-helix”. Also, the pH sensitivity in data set [2] is 3.0.
On to FLGALFKALSKLL [PTP-7], for which the “Cytotoxicity to A549 relative to CCD-13Lu” value in data set [3] is given as “equally active to both cells”.
On to `CO/C1=C\C(C)=C\[C@@H](C)[C@@H](O)[C@@H](C)C/C(C)=C/C=C/[C@H](OC)[C@@H]([C@@H](C)[C@@H](O)[C@H](C)[C@@]2(O)C[C@@H](O)[C@H](C)[C@@H](C(C)C)O2)OC1=O` [Bafilomycin A1], for which the “Effect on cell viability” value in data set [4] is given as “very limited effects on cell viability”.
In the case of WLGALFKALSHLLGHHPH [CL-22], in data set [1], the “Structure pH=6.5” value was “Coil” and the “Structure pH=7.4” value is given as “α-helix”. The pH sensitivity in data set [2] is listed as 13.8.
Turning to WLGALFKALSHLL [CL-10], in data set [1], the “Structure pH=6.5” value is listed as “Coil” and the “Structure pH=7.4” value is given as “α-helix”. Moreover, the pH sensitivity in data set [2] was 2.5.
The matching figures for FLGALFRALSRLL [CL-1]: “Coil”, “Coil” and 1.2.
With `Nc1ncnc2c1nc(Sc1ccc(Cl)cc1)n2[C@@H]1O[C@@H]2COP(=O)(O)O[C@H]2[C@H]1O` [Peptide 8-CPT-cAMP, 8-CPT-cAMP], the “Time to reduction of cell surface pH” value in data set [5] is listed as ≤ 30 minutes. Further, in data set [4], the “Effect on cell viability” value was “no effects on the viability”.
In the case of FLGALFRALSHLL [CL-7], in data set [1], the “Structure pH=6.5” value is listed as “Coil” and the “Structure pH=7.4” value is given as “α-helix”. For the same compound, in data set [2], the pH sensitivity is given as 2.2. Besides, the “Aggregation at physiological pH” value in data set [6] (40 µM peptide, 1,8-ANS 20 µM, excitation 369 nm, SEM at pH=7.4) is given as “underwent self-assembly at physiological pH”. The “Stability of peptide aggregates under acidic conditions” value in data set [6] (1,8-ANS 20 µM, 40 µM peptide, particle analysis at 80 µM) was “unstable and dissolved under acidic conditions”.
